Structures can show the parent of a compound that is named as a salt.
Experiments:
[1] = Plasma, brain interstitial fluid (microdialysis) and whole-brain drug levels after intravenous (IV) and intracalvariosseous (ICO) administration; assay type: in vivo, rat; settings: for brain-to-plasma ratio (Kp), ICO administration group relative to IV administration group: at 24 hours after administration; for brain-to-plasma ratio (Kp), ICO administration group relative to IV administration group / Cbr (brain drug concentration), ICO administration group relative to IV administration group: fold higher in ICO (5 mg/kg) than IV (0.5 mg/kg); for AUCISF of the ICO administration group compared with the IV administration group: brain interstitial fluid (microdialysis, right hippocampus); for AUCplasma of the ICO administration group compared with the IV administration group: rat plasma; for Cbr (brain drug concentration), ICO administration group relative to IV administration group: whole brain at 24 hours after administration
Description: The experiment was performed with 5-week-old male rats weighing […]. To ensure statistical independence, only male rats were used in each experiment.
Eight rats were randomly assigned to the IV and ICO administration groups for each compound and were administered continuously from the next day (n=4).
In order to perform the experiment, the drug administration device of the present disclosure should be installed on the rats in the ICO administration group, and a guide cannula for a microdialysis probe for measuring the concentration of drugs in the brain should be installed on the rats in both the ICO administration group and the IV administration group.
As illustrated in FIG. 9 and FIG. 10, the drug administration device was installed on the left side of the skull of the rats in the ICO administration group, and the guide cannula was installed on the right side, while only the guide cannula was implanted in the skull of the IV administration group.
Then, in order to implant the microdialysis guide cannula, the rats in the ICO and IV administration groups were anesthetized with isoflurane, and a small hole was drilled in the skull, and the guide cannula was inserted into the right hippocampus (see FIGS. 9 and 10). The inserted guide cannula was fixed with dental cement, and the skin wound was sutured, and then the rats were allowed to recover from the surgery in the cage for one day.
Before the drug administration, the membrane of the microdialysis probe was soaked in ethanol and artificial cerebrospinal fluid (aCSF) buffer was perfused through the microdialysis probe at a flow rate of 0.5 μl/min for 1 hour for stabilization.
In addition, the ICO administration group was administered at a dose of 5 mg/kg by filling the drug into the receiving portion 100 of the drug administration device.
The perfusate of the microdialysis probe was collected every 30 minutes for […] between 8 and 24 hours after administration.
The dialysate samples were stored at […] until the time of LC-MS/MS analysis (tandem mass spectrometry).
Blood samples were immediately centrifuged at 10,000 rpm for 10 minutes at 4° C. to recover plasma. In the case of TMZ, blood samples collected after administration were immediately centrifuged and then 10 μl of plasma was acidified with 2 μl of 0.1% formic acid.
Brains were excised 24 hours after administration, and PBS (phosphate buffer saline) corresponding to the weight of each tissue sample was added, followed by homogenization using a homogenizer.
Plasma and homogenized brain tissue samples were stored at […] until LC-MS/MS analysis.
The areas under the curve in plasma (AUCplasma) and interstitial fluid (ISF) concentration-time curves (AUCISF) were determined by noncompartmental analysis using WinNonlin 2.1. Brain concentration (Cbr) in the whole brain at 24 hours was corrected for the plasma volume of the corresponding organ using the Expression below, which was determined using LC-MS/MS.
In the above Expression, Cbr, quant, 24 h is the brain drug concentration (ng/g) at 24 hours quantified by LC-MS/MS, V0 is the plasma volume of the corresponding organ (μl/g), Cplasma, 24 h at 24 hours is the plasma concentration (ng/ml), and the V0 value for the brain was selected as 9.3±1.1 μl/g.
Compared to IV administration, the extent of brain uptake after ICO administration was expressed as brain availability (Fbr), which is similar to systemic bioavailability (F), and was calculated as the ratio of AUCISF, IV and AUCISF, ICO using the Expression below.
In the above Expression, AUCISF,ICO and AUCISF,IV are the areas under the curves in the brain interstitial fluid-time plot (AUCISF) up to 24 hours after ICO administration and IV administration, respectively.

[2] = Near-infrared (NIR) fluorescence imaging of ICG diffusion in the skull after administration through the installed device; assay type: in vivo, rat; settings: 24 hours after 50 μl of ICG (500 μg/ml in saline), NIR fluorescence image
Description: Next, the integrity of the drug administration device installed in the skull of the rat was tested by near-infrared (NIR) fluorescence imaging using indocyanine green (IGC).
The diffusion of ICG into the rat skull was observed by the near-infrared fluorescence imaging of the drug administration device installed in the thinned rat skull.
50 μl of ICG (500 μg/ml in saline) was administered to the rat with the drug administration device installed. After 24 hours, the rat was anesthetized, placed in a stereotaxic position, and the scalp was cut. For the ICG-NIR fluorescence imaging, a 780 nm laser with 150 mW output was set at a distance of 80 mm and an angle of 20° from the target through a C-clamp on a Z stand for a laser spot size of 15 mm width and 25 mm length, and fluorescence images were recorded at 1 frame per second using basedcam2 software while NIR light was administered through the 780 nm laser.

[3] = up to 24 h, ICO 5 mg/kg vs IV 0.5 mg/kg

| brain-to-plasma ratio (Kp), ICO administration group relative to IV administration group [1] | AUCISF of the ICO administration group compared with the IV administration group [1, 3] | AUCplasma of the ICO administration group compared with the IV administration group [1, 3] | Cbr (brain drug concentration), ICO administration group relative to IV administration group [1] | ICG signal in the left skull where the drug administration device was installed [2] | ICG signal in the right skull [2] | AUCISF after ICO administration ([1]; ICO 5 mg/kg, brain interstitial fluid, up to 24 h) | ISF concentration after IV administration ([1]; IV 0.5 mg/kg, all time points, brain interstitial fluid) | AUC ratio (%, AUCISF/AUCplasma), ICO administration group relative to IV administration group ([1]; fold higher in ICO than IV group, ICO 5 mg/kg vs IV 0.5 mg/kg) | Structure (SMILES) |
| --- | --- | --- | --- | --- | --- | --- | --- | --- | --- |
| 35.3 times | no different | relatively lower | 85.1 times | – | – | – | – | – | CN(C)CCCN1c2ccccc2Sc2ccc(Cl)cc21 [CPZ, Chlorpromazine hydrochloride] |
| 3.4 times | relatively higher | relatively lower | 3.1 times | – | – | – | – | – | [2H]C([2H])(N)C([2H])([2H])C([2H])([2H])C(=O)O [GABA, gamma-aminobutyric acid-d6] |
| – | – | – | – | brightly lit | no signal was observed | – | – | – | CC1(C)C(/C=C/C=C/C=C/C=C2\N(CCCCS(=O)(=O)O)c3ccc4ccccc4c3C2(C)C)=[N+](CCCCS(=O)(=O)[O-])c2ccc3ccccc3c21 [ICG, indocyanine green] |
| – | relatively higher | relatively lower | 294.1 times | – | – | 796.55 ng/min/mL | below the limit of detection (LOD) | – | CC(=O)O[C@H]1C(=O)[C@@]2(C)[C@H]([C@H](OC(=O)c3ccccc3)[C@]3(O)C[C@H](OC(=O)[C@H](O)[C@@H](NC(=O)c4ccccc4)c4ccccc4)C(C)=C1C3(C)C)[C@]1(OC(C)=O)CO[C@@H]1C[C@@H]2O [PTX, paclitaxel] |
| 1.9 times | relatively higher | relatively lower | 3.4 times | – | – | – | – | 3.0 times | Cn1nnc2c(C(N)=O)ncn2c1=O [TMZ, temozolomide] |

| Structure (SMILES) | brain-to-plasma ratio (Kp), ICO administration group relative to IV administration group [1] | AUCISF of the ICO administration group compared with the IV administration group [1, 3] | AUCplasma of the ICO administration group compared with the IV administration group [1, 3] | Cbr (brain drug concentration), ICO administration group relative to IV administration group [1] | ICG signal in the left skull where the drug administration device was installed [2] | ICG signal in the right skull [2] | AUCISF after ICO administration ([1]; ICO 5 mg/kg, brain interstitial fluid, up to 24 h) | ISF concentration after IV administration ([1]; IV 0.5 mg/kg, all time points, brain interstitial fluid) | AUC ratio (%, AUCISF/AUCplasma), ICO administration group relative to IV administration group ([1]; fold higher in ICO than IV group, ICO 5 mg/kg vs IV 0.5 mg/kg) |
| --- | --- | --- | --- | --- | --- | --- | --- | --- | --- |
| Cc1nc2n(c(=O)c1CCN1CCC(c3noc4cc(F)ccc34)CC1)CCCC2 [RIS, risperidone] | – | relatively higher | relatively lower | – | – | – | – | – | – |
| CCN(C)C(=O)Oc1cccc([C@H](C)N(C)C)c1.O=C(O)C(O)C(O)C(=O)O [RVG, rivastigmine i-tartrates] | – | relatively higher | – | – | – | – | – | – | – |
